Assay [1] deals with T1, Muscarinic acetylcholine receptor M4 (Homo sapiens) (UniProt P08173).
T1 sequence (whole entry): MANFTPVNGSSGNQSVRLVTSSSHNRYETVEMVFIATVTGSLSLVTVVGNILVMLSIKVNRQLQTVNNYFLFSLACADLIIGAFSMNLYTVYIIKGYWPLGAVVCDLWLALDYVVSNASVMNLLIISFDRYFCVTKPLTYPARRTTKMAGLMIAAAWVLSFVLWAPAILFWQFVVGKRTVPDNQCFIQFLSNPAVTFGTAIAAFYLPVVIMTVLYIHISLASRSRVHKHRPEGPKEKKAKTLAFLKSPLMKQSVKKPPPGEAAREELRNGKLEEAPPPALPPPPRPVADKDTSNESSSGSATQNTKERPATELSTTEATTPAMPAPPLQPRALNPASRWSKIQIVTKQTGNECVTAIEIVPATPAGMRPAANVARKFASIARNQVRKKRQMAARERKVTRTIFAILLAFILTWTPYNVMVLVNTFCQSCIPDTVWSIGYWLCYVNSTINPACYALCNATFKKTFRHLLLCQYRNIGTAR
As to the kind of experiment: Positive allosteric modulator activity at human M4 receptor expressed in CHO cells co-expressing Gqi5 assessed as maximal response to ACh by calcium mobilization assay relative to contol. The assay is classed as cell-based. As to conditions: filed as positive allosteric modulator.

Assay [2] has as its target T2, Muscarinic acetylcholine receptor M4 (Homo sapiens, UniProt P08173).
T2 sequence (P08173 whole entry): T1 sequence (whole entry)
The assay is described as follows: Positive allosteric modulator activity at human M4 receptor expressed in CHO cells co-expressing Gqi5 in presence of EC20 concentration of acetylcholine by calcium mobilization assay. The class given is cell-based.

Regarding `Cc1nnc2sc(C(=O)NCc3ccc(O)cc3)c(N)c2c1C`, the Activity in assay [1] is 69.8%. Further, in assay [2] (read-out: EC50), the EC50 was 0.0967 µM.

A word on the pEC50: it is the EC50 on a negative log10 scale, so that one unit is a factor of ten. Consider `COc1ccc([C@@H](C)NC(=O)c2sc3nnc(C)c(C)c3c2N)cc1F`, for which the pEC50 in assay [2] (cho) is under 5. Also, the EC50 in assay [2] (read-out: EC50) is over 10 µM.

As to `COc1cc(F)c(CNC(=O)c2sc3nnc(C)c(C)c3c2N)cc1F`, in assay [1], the Activity came out at 68.5%. Further, the EC50 in assay [2] (read-out: EC50) is 0.0414 µM.

`COc1ccc(CNC(=O)c2sc3nnc(C)c(C)c3c2N)cc1`: the Activity in assay [1] was found to be 83.7%. For the same molecule, the EC50 in assay [2] (read-out: EC50) came to 0.13 µM.

As for `COc1ccc(CNC(=O)c2sc3nnc(C)c(C)c3c2N)c(F)c1`, the Activity in assay [1] is 75.5%. For the same molecule, in assay [2] (read-out: EC50), the EC50 stood at 0.0906 µM.

Turning to `COc1cc(F)c(CNC(=O)c2sc3nnc(C)c(C)c3c2N)c(F)c1`, the Activity in assay [1] came to 87.1%. In addition, the EC50 in assay [2] (read-out: EC50) worked out at 0.1 µM.

On to `COc1ccc([C@H](C)NC(=O)c2sc3nnc(C)c(C)c3c2N)cc1F`, for which the Activity in assay [1] is 62.4%. Also, in assay [2] (read-out: EC50), the EC50 worked out at 0.508 µM.

On to `Cc1nnc2sc(C(=O)NCc3ccc(O)c(F)c3)c(N)c2c1C`, for which the Activity in assay [1] was 83.1%. Besides, the figures for the EC50 in assay [2] (read-out: EC50) and in assay [2] (read-out: pEC50 (converted)) were 0.0591 µM and 0.0603 µM, respectively.

`COc1ccc(CNC(=O)c2sc3nnc(C)c(C)c3c2N)c(F)c1F`: in assay [1], the Activity was found to be 71.2%. Further, the EC50 in assay [2] (read-out: EC50) was found to be 0.0434 µM.

For the molecule `COc1ncc(CNC(=O)c2sc3nnc(C)c(C)c3c2N)cc1F`, the Activity in assay [1] came out at 80.8%. The EC50 in assay [2] (read-out: EC50) worked out at 0.142 µM.

Consider `COc1c(F)cc(CNC(=O)c2sc3nnc(C)c(C)c3c2N)cc1F`, for which, in assay [1], the Activity is 75.3%. Further, the EC50 in assay [2] (read-out: EC50) was 0.0841 µM.

Turning to `COc1ccc(CNC(=O)c2sc3nnc(C)c(C)c3c2N)cn1`, in assay [1], the Activity came out at 76.9%. Besides, the EC50 in assay [2] (read-out: EC50) worked out at 0.239 µM.

For the origin of these results see ChEMBL document CHEMBL5252536, “Discovery of VU0467485/AZ13713945: An M4 PAM Evaluated as a Preclinical Candidate for the Treatment of Schizophrenia” (ACS Med Chem Lett, 2017).
